# Key:
# NCIH460 (lung) cells = experiment: Anti-cancer screen (MTT), NCIH460; assay type: cell-based; conditions: Homo sapiens, NCI-H460, NCIH460, 48 hours, MTT; for GI50: read-out: Cell growth inhibition NCIH460 (Lung) GI50; for LC50: read-out: Cell growth inhibition NCIH460 (Lung) LC50; for IC (TGI): read-out: Cell growth inhibition NCIH460 (Lung) TGI
# How it was run: (§1)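 A570 read-out after a 3 h MTT step and DMSO solubilisation; a separate plate measured at drug addition served as T0. Treatment lasted 48 h at five concentrations (0.01–100 μM) after 24 h attachment in DMEM/10% FBS; SAHA as standard.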
# HCT 116 (colon) cells = experiment: Anti-cancer screen (MTT), HCT 116; assay type: cell-based; conditions: Homo sapiens, HCT-116, HCT116, 48 hours, MTT; for GI50: read-out: Cell growth inhibition HCT116 (Colon) GI50; for CC50: read-out: Cell growth inhibition HCT116 (Colon) LC50; for IC (TGI): read-out: Cell growth inhibition HCT116 (Colon) TGI
# How it was run: as §1
# U251 (glioma) cells = experiment: Anti-cancer screen (MTT), U251; assay type: cell-based; conditions: Homo sapiens, U-251, U251, 48 hours, MTT; for GI50: read-out: Cell growth inhibition U251 (Glioma) GI50; for LC50 (concentration giving 50% net cell kill relative to the time-zero cell count): read-out: Cell growth inhibition U251 (Glioma) LC50; for IC (TGI): read-out: Cell growth inhibition U251 (Glioma) TGI
# How it was run: as §1
# [1] = system: NCIH460, HCT116 and U251 cells; experiment: Anti-cancer screen, mean GI50 over cell lines; assay type: cell-based; conditions: mean over cell lines; read-out: Cell growth inhibition Mean GI50
# How it was run: as §1
# [2] = system: HDAC (Mouse Liver Extract); experiment: HDAC inhibition assay using Boc-Lys(Ac)-AMC substrate; assay type: biochemical; conditions: mouse liver enzyme
# How it was run: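 Released AMC measured at 360 nm excitation, 460 nm emission after 15-30 min trypsin development at 37° C. Preceding deacetylation: mouse liver extract with acetylated-lysine AMC substrate, 30 min at 37° C after 5-min preincubation; blanks were buffer alone and substrate alone.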
Structure (SMILES),GI50 (NCIH460 (lung) cells) [µM],LC50 (NCIH460 (lung) cells) [µM],IC (TGI) (NCIH460 (lung) cells) [µM],GI50 (HCT 116 (colon) cells) [µM],CC50 (HCT 116 (colon) cells) [µM],IC (TGI) (HCT 116 (colon) cells) [µM],GI50 (U251 (glioma) cells) [µM],LC50 (concentration giving 50% net cell kill relative to the time-zero cell count) (U251 (glioma) cells) [µM],IC (TGI) (U251 (glioma) cells) [µM],GI50 [1] [µM],HDAC inhibition % (1 μM) [2] [%],HDAC inhibition % (10 μM) [2] [%],IC50 [2] [nM]
"CSc1ccc(/C=C(/C(=O)NCc2ccc(C(=O)Nc3ccccc3N)cc2)c2ccc(C(F)(F)F)cc2)cc1 [Compound 21, N-(2-Aminophenyl)-4-((3-(4-methylthiophenyl)-2-(4-trifluoromethylphenyl)acrylamido)methyl)benzamide]",32,78,46,35,82,56,52,96,65,39.7,7.0,24.8,
"COc1ccc(/C(=C\c2ccc(F)cc2)C(=O)NCc2ccc(C(=O)NO)cc2)cc1 [Compound 49, 4-((2-(4-Methoxyphenyl)-3-(4-fluorophenyl)acrylamido)methyl)-N-hydroxybenzamide]",19,89,52.5,3.3,66,9,5.4,81,34.5,9.2,45.5,69.7,330
"O=C(CCCCCNC(=O)/C(=C/c1ccccc1)c1ccccc1)NO [Compound 88, 6-(2,3-Diphenylacrylamido)-N-hydroxy hexanamide]",21,91,57.5,5,> 100,22.5,7.8,78,37.5,11.3,81.5,95.4,
"CSc1ccc(/C=C(/C(=O)NCCCCCCC(=O)NO)c2ccc(F)cc2)cc1 [Compound 84, 7-(2-(4-Fluorophenyl)-3-(4-methylthiophenyl)acrylamido)-N-hydroxy heptanamide]",2.3,70,21,1.2,> 100,21,4.2,95,21,2.6,90.0,94.3,60
"Nc1ccccc1NC(=O)c1ccc(CNC(=O)/C(=C/c2ccccc2F)c2ccc(Cl)cc2)cc1 [Compound 3, N-(2-Aminophenyl)-4-((3-(2-fluorophenyl)-2-(4-chlorophenyl)acrylamido)methyl)benzamide]",0.6,> 100,52,3.2,100,10,16,85,39,6.6,5.1,16.4,
"Nc1ccccc1NC(=O)c1ccc(CNC(=O)/C(=C/c2ccc(F)c(C(F)(F)F)c2)c2ccc(C(F)(F)F)cc2)cc1 [Compound 4, N-(2-Aminophenyl)-4-((3-(4-fluoro-3-trifluoromethylphenyl)-2-(4-trifluoromethylphenyl)acrylamido)methyl)benzamide]",0.2,58.5,3.8,4.1,77,26,11.5,> 100,41,5.3,0.0,14.2,
"COC(=O)c1ccc(/C=C(/C(=O)NCc2ccc(C(=O)Nc3ccccc3N)cc2)c2ccccc2F)cc1 [Compound 34, N-(2-Aminophenyl)-4-((3-(4-carbmethoxyphenyl)-2-(2-fluorophenyl)acrylamido)methyl)benzamide]",10.1,> 100,90,1.8,> 100,13,0.7,65,23,4.2,23.1,42.3,
"CSc1ccc(/C=C(/C(=O)NCc2ccc(C(=O)Nc3ccccc3N)cc2)c2ccsc2)cc1 [Compound 26, N-(2-Aminophenyl)-4-((3-(4-methylthiophenyl)-2-(thiophen-3-yl)acrylamido)methyl)benzamide]",52,> 100,> 100,4,> 100,15,50,> 100,70,35.3,34.1,42.6,
"CSc1ccc(/C=C(/C(=O)NCc2ccc(C(=O)Nc3ccccc3N)cc2)c2cccs2)cc1 [Compound 18, N-(2-Aminophenyl)-4-((3-(4-methylthiophenyl)-2-(thiophen-2-yl)acrylamido)methyl)benzamide]",4.1,> 100,20,5,> 100,20,2.2,7,4,3.8,28.7,36.7,
"CSc1ccc(/C=C(/C(=O)NCc2ccc(C(=O)NO)cc2)c2ccccc2Cl)cc1 [Compound 56, 4-((2-(2-Chlorophenyl)-3-(4-methylthiophenyl)acrylamido)methyl)-N-hydroxybenzamide]",> 100,> 100,> 100,> 100,> 100,> 100,0.1,> 100,0.1,> 100,7.7,8.0,
"COc1ccc(/C=C(/C(=O)NCc2ccc(C(=O)Nc3ccccc3N)cc2)c2ccccc2)c(OC)c1 [Compound 39, N-(2-Aminophenyl)-4-((3-(2,4-dimethoxyphenyl)-2-phenylacrylamido)methyl)benzamide]",3.2,> 100,> 100,0.7,> 100,80,3.2,> 100,100,2.4,9.1,18.9,
"CSc1ccc(/C=C(/C(=O)NCCCCCC(=O)NO)c2ccccc2Cl)cc1 [Compound 95, 6-(2-(2-Chlorophenyl)-3-(4-methylthiophenyl)acrylamido)-N-hydroxy hexanamide]",6,72,40,3,66,14,0.1,64,11,3,60.8,92.0,10
"CSc1ccc(/C=C(/C(=O)NCCCCCC(=O)NO)c2ccsc2)cc1 [Compound 90, 6-(2-(Thiophen-3-yl)-3-(4-methylthiophenyl)acrylamido)-N-hydroxy hexanamide]",0.1,30,5,3,> 100,6,0.8,82,6.1,1.3,78.2,98.9,40
"COC(=O)c1ccc(/C=C(/C(=O)NCc2ccc(C(=O)Nc3ccccc3N)cc2)c2ccc(OC)cc2)cc1 [Compound 35, N-(2-Aminophenyl)-4-((3-(4-carbmethoxyphenyl)-2-(4-methoxyphenyl)acrylamido)methyl)benzamide]",> 100,> 100,> 100,2,> 100,> 100,> 100,> 100,> 100,2,24.8,41.1,
